The source of these data is patent US20060160864A1, “Acrylamide derivative, process for producing the same, and use” (priority 2003, published 2006).

T1 sequence (P51681 whole entry): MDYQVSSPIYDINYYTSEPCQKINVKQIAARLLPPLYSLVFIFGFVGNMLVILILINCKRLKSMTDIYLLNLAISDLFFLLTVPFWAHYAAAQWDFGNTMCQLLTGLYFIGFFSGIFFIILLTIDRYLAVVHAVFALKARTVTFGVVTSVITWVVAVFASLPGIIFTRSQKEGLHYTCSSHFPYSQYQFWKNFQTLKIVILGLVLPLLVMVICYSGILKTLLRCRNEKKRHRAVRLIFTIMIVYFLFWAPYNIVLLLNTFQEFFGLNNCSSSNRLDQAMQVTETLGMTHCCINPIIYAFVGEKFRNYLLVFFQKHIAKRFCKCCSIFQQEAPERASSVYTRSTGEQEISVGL

System in one series: not given
Experiment: not given
Details: not given
Regarding `CCCCOCCOc1ccc(-c2ccc(N3CCC4(C3)OCCO4)c(/C=C(\C)C(=O)Nc3ccc([S@@+]([O-])Cc4cncn4CCC)cc3)c2)cc1` [Compound 37, (S)-(2E)-3-[4′-(2-butoxyethoxy)-4-(1,4-dioxa-7-azaspiro[4.4]non-7-yl)-1,1′-biphenyl-3-yl]-2-methyl-N-[4-[[(1-propyl-1H-imidazol-5-yl)methyl]sulfinyl]phenyl]acrylamide], the melting point (as a rule, the temperature of the solid-liquid transition) lay in the range of 139.5 to 140.5 °C.

Turning to `CCCCOCCOc1ccc(-c2ccc(N3CCC(C(=O)N(C)C)C3)c(/C=C(\C)C(=O)Nc3ccc([S@@+]([O-])Cc4cncn4CCC)cc3)c2)cc1` (stereo partly shown) [Compound 45, (Ss)-(2E)-3-[4′-(2-butoxyethoxy)-4-[3-(dimethylaminocarbonyl)pyrrolidin-1-yl]-1,1′-biphenyl-3-yl]-2-methyl-N-[4-[[(1-propyl-1H-imidazol-5-yl)methyl]sulfinyl]phenyl]acrylamide], the melting point lay in the range of 151 to 152 °C.

For the compound `CCCCOCCOc1ccc(-c2ccc(N3CCC(C(=O)NC)C3)c(/C=C(\C)C(=O)Nc3ccc([S@@+]([O-])Cc4cncn4CCC)cc3)c2)cc1` (stereo partly shown) [Compound 44, (Ss)-(2E)-3-[4′-(2-butoxyethoxy)-4-[3-(methylaminocarbonyl)pyrrolidin-1-yl]-1,1′-biphenyl-3-yl]-2-methyl-N-[4-[[(1-propyl-1H-imidazol-5-yl)methyl]sulfinyl]phenyl]acrylamide], the melting point lay within 127 to 128.5 °C.

`CCCCOCCOc1ccc(-c2ccc(N3CCC(C(=O)O)C3)c(/C=C(\C)C(=O)Nc3ccc([S@@+]([O-])Cc4cncn4CCC)cc3)c2)cc1` (stereo partly shown) [Compound 41, (Ss)-(2E)-3-[4′-(2-butoxyethoxy)-4-(3-carboxypyrrolidin-1-yl)-1,1′-biphenyl-3-yl]-2-methyl-N-[4-[[(1-propyl-1H-imidazol-5-yl)methyl]sulfinyl]phenyl]acrylamide] gave a melting point of 184 to 186 °C.

Another series addresses T1, human CCR5 (Homo sapiens, UniProt P51681).
T1 construct: expressed in transfected cells
As to the kind of experiment: Inhibition of [125I]-RANTES binding to CCR5/CHO cells (CCR5 antagonist activity). As to conditions: 40 min, test compound 1 μM, [125I]-RANTES 100 pM, CCR5/CHO strains, room temperature, read-out: Binding Inhibitory Ratio (%). On the procedure:
Cloning of a CCR5 gene was conducted from human spleen cDNA by a PCR method. Using 0.5 ng of spleen cDNA (Toyobo Co., Ltd., QUICK-Clone cDNA) as a template, the PCR reaction was carried out in a DNA Thermal Cycler 480 (Perkin Elmer) using a TaKaRa EX Taq (Takara Shuzo Co., Ltd.) (reaction conditions: 30 cycles of treatments at 95° C. for 1 minute, at 60° C. for 1 minute, and at 75° C. for 5 minutes) by adding 25 pmol of primers, SEQ ID NO. 1 (sequence length: 34; sequence type: nucleic acid; number of chains: a single chain; topology: linear; sequence kind: other nucleic acid, synthetic DNA) described in Experimental Example (1) of WO 99/32100, and SEQ ID NO. 2 (sequence length: 34; sequence type: nucleic acid; number of chains: a single chain; topology: linear; sequence kind: other nucleic acid, synthetic DNA) described in Experimental Example (1) of WO 99/32100, respectively, which were prepared by referring to the base sequence of the CCR5 gene described by Samson et al. (Biochemistry 35 (11), 3362-3367 (1996)). The PCR products were subjected to agarose gel electrophoresis to collect DNA fragments of about 1.0 kb. Then, the CCR5 gene was cloned using an Original TA Cloning Kit (Funakoshi Co., Ltd.).
The plasmids obtained above were digested with restriction enzymes XbaI (Takara Shuzo Co., Ltd.) and BamHI (Takara Shuzo Co., Ltd.), and subjected to agarose gel electrophoresis to collect DNA fragments of about 1.0 kb. The DNA fragments and a plasmid pcDNA3.1 (Funakoshi Co., Ltd.) for expression in animal cells, which was previously digested with XbaI and BamHI, were mixed and ligated by DNA Ligation Kit Ver.2 (Takara Shuzo Co., Ltd.). Transformation of E. coli JM109 competent cells (Takara Shuzo Co., Ltd.) gave plasmid pCKR5.
CHO-K1 cells grown in a 750 ml tissue culture flask (Becton Dickinson) using Ham's F12 medium (Nihon Pharmaceutical Co., Ltd.) containing 10% fetal bovine serum (Lifetech Oriental) were collected from the flask by using 0.5 g/L trypsin-0.2 g/L EDTA (Lifetech Oriental). The cells were then washed with PBS (Lifetech Oriental), centrifuged (1000 rpm, 5 minutes), and suspended in PBS. Next, DNA was introduced into the cells using Gene Pulser (Bio-Rad Laboratories Inc.) under the following conditions. Namely, 8×10^6 cells and 10 μg of plasmid pCKR5 for expression of human CCR5 were added into a cuvette of a 0.4 cm-gap, and electroporation was carried out at an electric voltage of 0.25 kV and a capacitance of 960 μF. Subsequently, the cells were transferred into Ham's F12 medium containing 10% fetal bovine serum, and incubated for 24 hours. The cells were again collected, centrifuged, and then suspended in Ham's F12 medium containing 10% fetal bovine serum and Geneticin (Lifetech Oriental) at a concentration of 500 μg/ml. The suspension of cells was diluted to a concentration of 10^4 cells/ml, and inoculated on a 96-well plate (Becton Dickinson) to give Geneticin-resistant strains.
Subsequently, the Geneticin-resistant strains were cultured in the 96-well plate (Becton Dickinson), and then CCR5-expressing cells were selected from the resistant strains. Namely, an assay buffer (Ham's F12 medium containing 0.5% BSA, and 20 mM HEPES (Wako Pure Chemical Industries, Ltd., pH 7.2)) containing 200 pM [^125I]-RANTES (Amersham) as a ligand was added to each well and the binding reaction was carried out at room temperature for 40 minutes. Each well plate containing the cells was washed with ice-cooled PBS, and then to each well was added 1 M NaOH in an amount of 50 μl/well, which was stirred. The cells to which the ligand bound specifically, i.e., CCR5/CHO strains, were selected by measurement of radioactivity by γ-counter.
The CCR5/CHO strains were inoculated on a 96-well microplate at a concentration of 5×10^4 cells/well, respectively and were cultured for 24 hours. […]
As to `CCCCOCCOc1ccc(-c2ccc(N3CCC(C(=O)OC)C3)c(/C=C(\C)C(=O)Nc3ccc([S@@+]([O-])Cc4cncn4CCC)cc3)c2)cc1` (stereo partly shown) [Compound 40, (Ss)-(2E)-3-[4′-(2-butoxyethoxy)-4-[3-(methoxycarbonyl)pyrrolidin-1-yl]-1,1′-biphenyl-3-yl]-2-methyl-N-[4-[[(1-propyl-1H-imidazol-5-yl)methyl]sulfinyl]phenyl]acrylamide], the inhibition at 1 µM worked out at 100%. On the same count and under the same terms, the same measure for `CCCCOCCOc1ccc(-c2ccc(N3CCC(COC(C)=O)C3)c(/C=C(\C)C(=O)Nc3ccc([S@@+]([O-])Cc4cncn4CCC)cc3)c2)cc1` (stereo partly shown) [Compound 38, (Ss)-(2E)-3-[4-[3-(acetoxymethyl)pyrrolidin-1-yl]-4′-(2-butoxyethoxy)-1,1′-biphenyl-3-yl]-2-methyl-N-[4-[[(1-propyl-1H-imidazol-5-yl)methyl]sulfinyl]phenyl]acrylamide]: 93%; for `CCCCOCCOc1ccc(-c2ccc(N3CCC(CC(=O)O)C3)c(/C=C(\C)C(=O)Nc3ccc([S@@+]([O-])Cc4cncn4CCC)cc3)c2)cc1` (stereo partly shown) [Compound 62, (Ss)-(2E)-3-[4′-(2-butoxyethoxy)-4-[3-(carboxymethyl)pyrrolidin-1-yl]-1,1′-biphenyl-3-yl]-2-methyl-N-[4-[[(1-propyl-1H-imidazol-5-yl)methyl]sulfinyl]phenyl]acrylamide]: 100%; for `CCCCOCCOc1ccc(-c2ccc(N3CCC(C(=O)O)C3)c(/C=C(\C)C(=O)Nc3ccc([S@@+]([O-])Cc4cncn4CCC)cc3)c2)cc1` (stereo partly shown) [Compound 41, (Ss)-(2E)-3-[4′-(2-butoxyethoxy)-4-(3-carboxypyrrolidin-1-yl)-1,1′-biphenyl-3-yl]-2-methyl-N-[4-[[(1-propyl-1H-imidazol-5-yl)methyl]sulfinyl]phenyl]acrylamide]: 100%. Still for that read-out and setting: the same measure for `CCCCOCCOc1ccc(-c2ccc(N3CCC(C(=O)OC)C3)c(/C=C(\C)C(=O)Nc3ccc([S@@+]([O-])Cc4cncn4CCC)cc3)c2)cc1` (single isomer, unassigned) [Compound 57, (Ss)-(2E)-3-[4′-(2-butoxyethoxy)-4-[3-(methoxycarbonyl)pyrrolidin-1-yl]-1,1′-biphenyl-3-yl]-2-methyl-N-[4-[[(1-propyl-1H-imidazol-5-yl)methyl]sulfinyl]phenyl]acrylamide]: 100%; for `CCCCOCCOc1ccc(-c2ccc(N3CC(C)C(C)C3)c(/C=C(\C)C(=O)Nc3ccc([S@@+]([O-])Cc4cncn4CCC)cc3)c2)cc1` (stereo partly drawn) [Compound 42, (S)-(2E)-3-[4′-(2-butoxyethoxy)-4-(3,4-dimethylpyrrolidin-1-yl)-1,1′-biphenyl-3-yl]-2-methyl-N-[4-[[(1-propyl-1H-imidazol-5-yl)methyl]sulfinyl]phenyl]acrylamide]: 100%; for `CCCCOCCOc1ccc(-c2ccc(N3CCCC3C)c(/C=C(\C)C(=O)Nc3ccc([S@@+]([O-])Cc4cncn4CCC)cc3)c2)cc1` (stereo partly shown) [Compound 17, (Ss)-(2E)-3-[4′-(2-butoxyethoxy)-4-(2-methylpyrrolidin-1-yl)-1,1′-biphenyl-3-yl]-2-methyl-N-[4-[[(1-propyl-1H-imidazol-5-yl)methyl]sulfinyl]phenyl]acrylamide]: 100%. Still for that read-out and setting: the same measure for `CCCCOCCOc1ccc(-c2ccc(N3CCC(CO)C3)c(/C=C(\C)C(=O)Nc3ccc([S@@+]([O-])Cc4cncn4CCC)cc3)c2)cc1` (stereo partly shown) [Compound 39, (Ss)-(2E)-3-[4′-(2-butoxyethoxy)-4-[3-(hydroxymethyl)pyrrolidin-1-yl]-1,1′-biphenyl-3-yl]-2-methyl-N-[4-[[(1-propyl-1H-imidazol-5-yl)methyl]sulfinyl]phenyl]acrylamide]: 99%. `CCCCOCCOc1ccc(-c2ccc(N3CCCC3)c(/C(C)=C/C(=O)Nc3ccc([S@@+]([O-])Cc4cncn4CCC)cc3)c2)cc1` [Compound 35, (S)-(2E)-3-[4′-(2-butoxyethoxy)-4-pyrrolidin-1-yl-1,1′-biphenyl-3-yl]-N-[4-[[(1-propyl-1H-imidazol-5-yl)methyl]sulfinyl]phenyl]but-2-enoic amide]: the inhibition at 1 µM is 100%.

Staying with this series, now noted: test compound 1 μM; [125I]-RANTES 100 pM; CCR5/CHO strains; room temperature, 40 minutes.
Turning to `CCCCOCCOc1ccc(-c2ccc(N3CCC(C(=O)OC)C3)c(/C=C(\C)C(=O)Nc3ccc([S@@+]([O-])Cc4cncn4CCC)cc3)c2)cc1` (single isomer, unassigned) [Compound 58, (Ss)-(2E)-3-[4′-(2-butoxyethoxy)-4-[3-(methoxycarbonyl)pyrrolidin-1-yl]-1,1′-biphenyl-3-yl]-2-methyl-N-[4-[[(1-propyl-1H-imidazol-5-yl)methyl]sulfinyl]phenyl]acrylamide], the “Binding Inhibitory Ratio (%)” value was 95%.

For `CCCCOCCOc1ccc(-c2ccc(N3CCC(C(=O)O)C3)c(/C=C(\C)C(=O)Nc3ccc([S@@+]([O-])Cc4cncn4CCC)cc3)c2)cc1` (single isomer, unassigned) [Compound 60, (Ss)-(2E)-3-[4′-(2-butoxyethoxy)-4-(3-carboxypyrrolidin-1-yl)-1,1′-biphenyl-3-yl]-2-methyl-N-[4-[[(1-propyl-1H-imidazol-5-yl)methyl]sulfinyl]phenyl]acrylamide], the “Binding Inhibitory Ratio (%)” value was 91%. For `CCCCOCCOc1ccc(-c2ccc(N3CCC(O)C3)c(/C=C(\C)C(=O)Nc3ccc([S@@+]([O-])Cc4cncn4CCC)cc3)c2)cc1` (stereo partly shown) [Compound 26], the “Binding Inhibitory Ratio (%)” value came out at 90%.
